Measurements from ChEMBL document CHEMBL3217562, “N-Substituted salicylamides as selective malaria parasite dihydroorotate dehydrogenase inhibitors” (Medchemcomm, 2011).

What was measured:
[1] = target: T1, Dihydroorotate dehydrogenase (quinone), mitochondrial (Homo sapiens, UniProt Q02127); assay: Inhibition of N-terminal truncated human recombinant DHODH assessed as ubiquinone reduction to 2,6-dichloroindophenol at 10 uM by spectrophotometric analysis relative to control
[2] = target: T2, Dihydroorotate dehydrogenase (Plasmodium falciparum) (UniProt Q54A96); assay: Inhibition of N-terminal truncated Plasmodium falciparum recombinant DHODH assessed as ubiquinone reduction to 2,6-dichloroindophenol at 10 uM by spectrophotometric analysis relative to control
T2 sequence (whole entry): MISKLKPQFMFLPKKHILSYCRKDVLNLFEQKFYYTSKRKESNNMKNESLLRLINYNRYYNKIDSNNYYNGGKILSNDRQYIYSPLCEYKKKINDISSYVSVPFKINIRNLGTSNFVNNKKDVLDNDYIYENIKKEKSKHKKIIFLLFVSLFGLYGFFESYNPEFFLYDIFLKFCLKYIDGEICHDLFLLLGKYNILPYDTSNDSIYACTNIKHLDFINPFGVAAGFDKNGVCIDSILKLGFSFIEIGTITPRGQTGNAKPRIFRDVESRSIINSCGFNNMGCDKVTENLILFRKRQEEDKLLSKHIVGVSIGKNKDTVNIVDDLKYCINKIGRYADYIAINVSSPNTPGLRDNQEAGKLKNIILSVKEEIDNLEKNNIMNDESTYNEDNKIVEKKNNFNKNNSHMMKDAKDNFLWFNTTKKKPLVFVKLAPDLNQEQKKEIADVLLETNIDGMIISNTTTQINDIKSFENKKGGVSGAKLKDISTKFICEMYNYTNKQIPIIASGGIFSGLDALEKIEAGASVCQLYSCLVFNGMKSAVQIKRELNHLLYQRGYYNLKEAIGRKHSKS

[3] = target: T1, Dihydroorotate dehydrogenase (quinone), mitochondrial; assay: Inhibition of N-terminal truncated human recombinant DHODH assessed as ubiquinone reduction to 2,6-dichloroindophenol by spectrophotometric analysis
[4] = target: T3, Dihydroorotate dehydrogenase (Plasmodium falciparum, UniProt Q54A96); assay: Inhibition of N-terminal truncated Plasmodium falciparum recombinant DHODH assessed as ubiquinone reduction to 2,6-dichloroindophenol by spectrophotometric analysis
T3 sequence (Q54A96 whole entry): T2 sequence (whole entry)

[5] = system: Plasmodium falciparum; assay: Antiplasmodial activity against Plasmodium falciparum 3D7 after 48 hrs by [3H]-hypoxanthine incorporation assay; assay type: functional, organism-based
[6] = Selectivity ratio of IC50 for N-terminal truncated human recombinant DHODH to IC50 for N-terminal truncated Plasmodium falciparum recombinant DHODH
[7] = target: T2, Dihydroorotate dehydrogenase (Plasmodium falciparum); assay: Inhibition of N-terminal truncated Plasmodium falciparum recombinant DHODH assessed as ubiquinone reduction to 2,6-dichloroindophenol at 100 uM by spectrophotometric analysis relative to control

T1 sequence (Q02127 whole entry, the tested form may be a part): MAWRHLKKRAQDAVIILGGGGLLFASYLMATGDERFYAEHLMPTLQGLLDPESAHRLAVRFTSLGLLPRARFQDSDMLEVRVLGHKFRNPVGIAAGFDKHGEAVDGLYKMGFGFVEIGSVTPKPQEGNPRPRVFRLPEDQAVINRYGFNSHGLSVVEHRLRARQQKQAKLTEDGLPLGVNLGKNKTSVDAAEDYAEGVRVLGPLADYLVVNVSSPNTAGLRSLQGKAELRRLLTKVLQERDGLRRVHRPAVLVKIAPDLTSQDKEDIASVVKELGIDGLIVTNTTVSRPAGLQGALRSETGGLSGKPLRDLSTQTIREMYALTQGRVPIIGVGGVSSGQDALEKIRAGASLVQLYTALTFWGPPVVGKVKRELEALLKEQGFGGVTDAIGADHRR

| Compound | inhibition [1] | inhibition [2] | IC50 [3] | IC50 [4] | other results |
| --- | --- | --- | --- | --- | --- |
| O=C(NCCc1ccccc1)c1cccc(Cl)c1O | 8% | 10% | – | – | – |
| Cc1ccc(O)c(C(=O)NCCc2ccccc2)c1 | 4% | 16% | – | – | – |
| COc1ccc(O)c(C(=O)NCCc2ccccc2)c1 | 8% | 8% | – | – | – |
| O=C(NCCCc1ccccc1)c1ccccc1O | 7% | 39% | – | – | – |
| O=C(NCCc1ccccc1)c1c(O)cccc1O | 15% | 17% | – | – | – |
| CN(CCc1ccccc1)C(=O)c1ccccc1O | 3% | 3% | – | – | – |
| O=C(NCC(c1ccccc1)c1ccccc1)c1cc(Cl)cc(Cl)c1O | – | – | > 200 µM | 7 µM | EC50 [5]: 170 µM; Ratio IC50 [6]: > 20 |
| O=C(NCCc1ccccc1)c1cc([N+](=O)[O-])ccc1O | 26% | 5% | – | – | – |
| O=C(NCCc1ccccc1)c1ccccc1O | 6% | 21% | – | – | inhibition [7]: 53% |
| O=C(NC(c1ccccc1)c1ccccc1)c1ccccc1O | 6% | 0% | – | – | – |
| O=C(NCCc1ccccc1)c1cc(Cl)ccc1O | 6% | 23% | – | – | – |
| O=C(NCc1ccccc1)c1ccccc1O | 4% | 16% | – | – | – |
| COc1cccc(C(=O)NCCc2ccccc2)c1O | 8% | 7% | – | – | – |
| COc1ccc(C(=O)NCCc2ccccc2)c(O)c1 | 5% | 9% | – | – | – |
| O=C(NCCc1ccccc1)c1ccc(Cl)cc1O | 8% | 16% | – | – | – |
| CC(CNC(=O)c1ccccc1O)c1ccccc1 (racemic) | 4% | 20% | – | – | – |

More lines, main results first:

| inhibition [1] | inhibition [2] | IC50 [3] | IC50 [4] | Compound | other results |
| --- | --- | --- | --- | --- | --- |
| 4% | 38% | > 200 µM | 21.2 µM | O=C(NCC(c1ccccc1)c1ccccc1)c1ccccc1O | – |
| – | – | > 200 µM | 10.8 µM | O=C(NCC(c1ccccc1)c1ccccc1)c1cc(Br)ccc1O | – |
| – | – | > 200 µM | 14.4 µM | Cc1ccc(O)c(C(=O)NCC(c2ccccc2)c2ccccc2)c1 | – |
| – | – | > 200 µM | 16.5 µM | O=Cc1ccc(C(=O)NCC(c2ccccc2)c2ccccc2)c(O)c1 | – |
| – | – | 130 µM | 9.9 µM | O=C(NCC(c1ccccc1)c1ccccc1)c1ccc(F)c(F)c1O | EC50 [5]: 100 µM; Ratio IC50 [6]: 18 |
| – | – | > 200 µM | > 100 µM | O=C(NCC(c1ccccc1)c1ccccc1)c1cccc(CO)c1O | – |
| – | – | > 200 µM | 14 µM | COc1ccc(C(=O)NCC(c2ccccc2)c2ccccc2)c(O)c1 | – |
| – | – | > 200 µM | 8 µM | O=C(NCC(c1ccccc1)c1ccccc1)c1cc(CO)ccc1O | EC50 [5]: 53 µM; Ratio IC50 [6]: 18 |
| – | – | – | > 125 µM | COc1cccc(O)c1C(=O)NCC(c1ccccc1)c1ccccc1 | – |
| – | – | > 200 µM | 9.1 µM | O=C(NCC(c1ccccc1)c1ccccc1)c1cc(Cl)ccc1O | EC50 [5]: 23 µM; Ratio IC50 [6]: 18 |
| – | – | > 200 µM | 10.3 µM | O=C(NCC(c1ccccc1)c1ccccc1)c1ccc(Cl)cc1O | – |
| – | – | > 200 µM | 46.2 µM | O=C(NCC(c1ccccc1)c1ccccc1)c1ccc(CO)cc1O | – |
| 21% | 22% | – | – | O=C(NCCC(c1ccccc1)c1ccccc1)c1ccccc1O | – |
| – | – | > 200 µM | > 500 µM | COc1cccc(C(=O)NCC(c2ccccc2)c2ccccc2)c1O | – |
| – | – | > 200 µM | 26.1 µM | O=C(NCC(c1ccccc1)c1ccccc1)c1cccc(F)c1O | – |
| – | – | > 200 µM | 18.1 µM | COc1ccc(O)c(C(=O)NCC(c2ccccc2)c2ccccc2)c1 | – |
| – | – | > 200 µM | 44.1 µM | O=C(NCC(c1ccccc1)c1ccccc1)c1cccc(Cl)c1O | – |
| – | – | – | > 125 µM | O=C(NCC(c1ccccc1)c1ccccc1)c1c(O)cccc1F | – |
